Measured values as given in US20010049117A1, “ANALOGS OF UDP-MURNAC PEPTIDES, ASSAYS, KITS AND RELATED METHODS OF THEIR USE” (priority 1998, published 2001).

Tested on: MraY/MurG enzymes
Test: Lipid II formation assay (coupled MraY/MurG GlcNAc transferase assay, streptavidin capture)
Type: biochemical, E. coli
Procedure: Bacterial membranes are used as a source of enzymes in the coupled MraY/MurG assay for the formation of Lipid II. Wild-type E. coli and MurG over-expressing constructs have been utilized as the membrane donors. Bacteria are grown in Brain Heart Infusion media supplemented with Casamino Acids (BHI/CAA) at 37° C. with aeration, to log phase (OD600=0.7) and centrifuged at 7000×g. Pellets are washed once with 50× the wet pellet weight of 5 mM Tris-HCl (pH 8.0). Pellets are resuspended at a concentration of 2 gms wet pellet/35 mls 5 mM Tris for French Press disruption. Cells are pressure treated at 20,000 psi for 1 minute in a prechilled pressure cell. The membranes generated are collected by ultracentrifugation at 200,000×g for 1 hour at 4° C. Membrane pellets are resuspended in approximately the same volume as the wet pellet weight. This generally yields a membrane concentration of roughly 5 mg/ml. Aliquots are made, and membranes frozen at −80° C. until analysis.
Reactions for the formation of Lipid II have been optimized in 1.5 ml Eppendorf tubes. […]
To the Eppendorf tubes containing the reaction mixtures, 500 ul of binding buffer (10 mM Tris-HCl (PH 8.0), 150 mM NaCl, 0.2% Triton X-100) is added. […] The resulting beads are resuspended in buffer, mixed with scintillation cocktail, and counted in a scintillation counter to determine the amount of radioactivity associated with the capture event. […]

| Compound | effect on the coupled GlcNAc transferase assay (formation of Lipid II) (FIG. 4) | effect on formation of streptavidin-capturable radiolabeled Lipid II (100 ug/ml) |
| --- | --- | --- |
| CC1(C)S[C@@H]2[C@H](NC(=O)[C@H](N)c3ccccc3)C(=O)N2[C@H]1C(=O)O [ampicillin] | no effect |  |
| moenomycin |  | did not affect |
